Biological target: T1, PPARγ (Mus musculus, UniProt P37238)
T1 construct: GAL4 (yeast transcription factor, amino acids 1 to 147); expressed in transfected cells; host or cells: CV-1 cells (African green monkey kidney)
T1 sequence (P37238 174-475 isoform P37238-2): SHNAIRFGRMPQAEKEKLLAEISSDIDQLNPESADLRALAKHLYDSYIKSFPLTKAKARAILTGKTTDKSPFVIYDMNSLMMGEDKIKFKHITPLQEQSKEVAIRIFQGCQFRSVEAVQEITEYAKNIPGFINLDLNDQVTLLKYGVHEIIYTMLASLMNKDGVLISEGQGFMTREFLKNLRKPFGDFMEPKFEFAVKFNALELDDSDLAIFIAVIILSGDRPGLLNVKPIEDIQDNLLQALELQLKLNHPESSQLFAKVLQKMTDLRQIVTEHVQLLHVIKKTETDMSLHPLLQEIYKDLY
Test: PPARγ ligand activity measurement (GAL4-mPPARγ chimera luciferase reporter assay in CV-1 cells)
Type: cell-based
Details: for Specific activity (PPARγ ligand activity relative to no-treatment control): CV-1 cells, 24 hours, n=4, 1.5 or above = having PPARγ ligand activity; for PPARγ ligand activity comparison with troglitazone: compared with troglitazone at 0.5 μM, compounds at the concentrations of Table 2
Procedure: CV-1 cells (male African green monkey kidney-derived cultured cells) were distributed into wells of a 96-well culture plate (6×10^3 cells/well) and cultured under conditions of 37° C. and 5% CO2 for 24 hours. The medium used was DMEM (Dulbecco's modified Eagle medium; GIBCO) containing 10% FBS (fetal bovine serum), 10 ml/L of penicillin-streptomycin solution (5,000 IU/ml and 5,000 μg/ml, respectively; GIBCO) and 37 mg/L of ascorbic acid (Wako Pure Chemical Industries). After rinsing with OPTI-MEM (GIBCO), the cells were transfected with pM-mPPARγ and 4×UASg-luc using Lipofectamine Plus (GIBCO). […] Each sample in the assay group was dissolved in dimethyl sulfoxide (DMSO), and DMSO was used in the no-treatment control group. The solution or DMSO was added to the medium at a level of 1/1000. After washing the cells with Ca- and Mg-containing phosphate buffered saline (PBS^+), LucLite (Packard) was added to each well, and the luciferase-due luminescence intensity was measured using Packard's TopCount microplate scintillation/luminescence counter. Using pM (plasmid deprived of the PPARγ ligand binding site gene) in lieu of pM-mPPARγ, measurements in a control group were carried out in the same manner as in the above assay group. For each sample, the ratio in mean luminescence intensity (n=4) between the assay group and control group (assay group/control group ratio) was calculated, and the specific activity relative to the no-treatment control group was regarded as the PPARγ ligand activity of the sample. When the specific activity was 1.5 or above, the sample was evaluated as having PPARγ ligand activity.

For `COc1ccc(C2(O)COc3c(ccc4c3C=CC(C)(C)O4)C2=O)c(O)c1` (stereo not drawn) [Compound 3, 3,2′-dihydroxy-4′-methoxy-6″,6″-dimethylpyrano[2″,3″:7,8] isoflavanone], which “Specific activity (PPARγ ligand activity relative to no-treatment control)” value (20 μg/ml) is on record?
Its value is 1.90.

And the “PPARγ ligand activity comparison with troglitazone” value (“PPARγ ligand activity comparison” for short)?
Its value is “stronger in PPARγ ligand activity as compared with troglitazone”.

Which “Specific activity (PPARγ ligand activity relative to no-treatment control)” value (10 μg/ml) does the source give for `COc1c(/C=C/C(=O)c2cc(O)c(O)c(CC=C(C)C)c2)ccc(O)c1O` [Compound 1, 3,4,3′,4′-tetrahydroxy-2-methoxy-5′-γ,γ-dimethylallylchalcone] here?
The value was 3.58.

And the “PPARγ ligand activity comparison” value?
The value was “stronger in PPARγ ligand activity as compared with troglitazone”.

How did the “Specific activity (PPARγ ligand activity relative to no-treatment control)” value (10 μg/ml) turn out when `CC(C)=CCc1cc([C@@H]2CC(=O)c3ccc4c(c3O2)C=CC(C)(C)O4)ccc1O` [Compound 2, shinflavanone] was run?
Its value is 3.62.

And the “PPARγ ligand activity comparison” value?
Its value is “stronger in PPARγ ligand activity as compared with troglitazone”.
